Test [1] can be described thus: Trained sensory panel rating of sweetness intensity (SEV) and bitterness intensity, Example 1. It is filed as in vivo. Conditions: for Sweetness Avg. / Bitter Avg.: mean of five replicate tests; for Bitter Avg.: caffeine scale 1-15. On the procedure:
A sensory panel was trained to scale sweetness and bitterness. Reference tasting standards were prepared by dissolving respective standard material (sucrose for sweetness and caffeine for bitterness) into an aqueous citric acid buffer solution at pH 3.1 (distilled water containing 0.1% citric acid and 0.015% sodium citrate) according to the scale values shown in Table 1 below.
Solutions were made in the same citric acid buffer as the reference standard solutions. All solutions were heated to 55° C. for 12 minutes to ensure that all the glycoside material was completely dissolved. The solutions were allowed to cool to room temperature before serving to the panelists. Each solution was given a random 3-digit code and was served to the panelists in random order. Panelists dispensed 2 mL of each solution into their mouths from a pipette. The panelists were then asked to rate the “sweetness intensity” and “bitterness intensity” of the solutions and mark their responses on an un-anchored, 15 cm line scale. The length of the line corresponds to the scale values (1-15) on which the participants were trained. The panelists' responses were measured, compiled, and averaged for each sample. Each sample was tested by approximately 17 to 21 trained panelists.
In between testing samples, the panelists cleansed their palates with water and apple slices. The panelists also waited 5 minutes between each sample. Sweetness and bitter values of rebaudioside D (purity of 94.4%) and rebaudioside M (purity of […]) at varying concentrations were also obtained utilizing a sensory panel in a manner as described above. The sweetness is reported as sweetness and the sweetness is measured as a sucrose equivalent (SEV).
The sweetness and bitterness values of sweetener compositions containing Reb D or Reb M with other glycosides are shown in Tables 3-5. As described above, the samples were tasted by the panelist in random order. The tables show the concentration of the composition tested (ppm) as well as the ratio of one glycoside to another in the composition as a weight percentage.

Test [2] is described as follows: Trained sensory panel rating of sweetness and bitterness intensity, Example 2 (measured values, S/B). It is filed as in vivo. Conditions: for Measured Bitterness / Measured Sweetness: citric acid buffer, scale 1-15; for Measured S/B: sweetness/bitterness ratio. As to the method: A trained sensory panel evaluated solutions of each rebaudioside D, rebaudioside M, rebaudioside G, rebaudioside O, rebaudioside N and rebaudioside E at 400 ppm and 600 ppm. Solutions were made in a citric acid buffer as the reference standard solutions described in Example 1. All solutions were heated to 55° C. for 12 minutes to ensure that all the glycoside material was completely dissolved. The solutions were allowed to cool to room temperature before serving to the panelists. Each solution was given a random 3-digit code and was served to the panelists in random order. Panelists dispensed 2 mL of each solution into their mouths from a pipette. The panelists were then asked to rate the “sweetness intensity” and “bitterness intensity” of the solutions and mark their responses on an un-anchored, 15 cm line scale. The length of the line corresponds to the scale values (1-15) on which the participants were trained. The panelists' responses were measured, compiled, and averaged for each sample (measured sweetness values and bitterness values). In between testing samples, the panelists cleansed their palates with water and apple slices. The panelists also waited 5 minutes between each sample. Rebaudioside D (purity of 94.4%) was obtained from ChromaDex™ Corp and rebaudioside M (purity 99.3%) was obtained from Cargill, Incorporated. Rebaudioside G (purity of 96.0%), Rebaudioside O (purity of 97.9%), Rebaudioside N (purity of 93.5%), Rebaudioside E (purity of 97.2%) were each obtained from ChromaaDex™ Corp. […] Also shown in Table 7 is the sweetness/bitterness ratios (S/B).

Setting [3] is: 400 ppm in citric acid buffer pH 3.1.
Where [4] appears, read: 600 ppm in citric acid buffer pH 3.1.
[5] abbreviates: total blend 400 ppm, citric acid buffer pH 3.1.

Each structure is given as a SMILES string.

In the case of `C=C1C[C@@]23CC[C@H]4[C@@](C)(CCC[C@@]4(C)C(=O)O[C@@H]4O[C@H](CO)[C@@H](O)[C@H](O[C@@H]5O[C@H](CO)[C@@H](O)[C@H](O)[C@H]5O)[C@H]4O[C@@H]4O[C@H](CO)[C@@H](O)[C@H](O)[C@H]4O)[C@@H]2CC[C@]1(O[C@@H]1O[C@H](CO)[C@@H](O)[C@H](O[C@@H]2O[C@H](CO)[C@@H](O)[C@H](O)[C@H]2O)[C@H]1O[C@@H]1O[C@H](CO)[C@@H](O)[C@H](O)[C@H]1O)C3` [Reb M, Rebaudioside M], in test [1] (setting [3]), the “Sweetness Avg.” value came to 7.7 SEV and the “Bitter Avg.” value amounted to 3.8. In test [1] (setting [4]), the “Sweetness Avg.” value amounted to 8.4 SEV and the “Bitter Avg.” value is on record as 4.2. For the same compound, in test [2] (400 ppm), the “Measured Bitterness” value was determined as 3.65, the “Measured Sweetness” value was found to be 7.76 and the “Measured S/B” value is listed as 2.14. For the same compound, in test [2] (600 ppm), the “Measured Bitterness” value is listed as 3.76, the “Measured Sweetness” value was 8.38 and the “Measured S/B” value is recorded as 2.26.
Turning to `C=C1C[C@@]23CC[C@H]4[C@@](C)(CCC[C@@]4(C)C(=O)O[C@@H]4O[C@H](CO)[C@@H](O)[C@H](O[C@@H]5O[C@H](CO)[C@@H](O)[C@H](O)[C@H]5O)[C@H]4O[C@@H]4O[C@@H](C)[C@H](O)[C@@H](O[C@@H]5O[C@H](CO)[C@@H](O)[C@H](O)[C@H]5O)[C@H]4O)[C@@H]2CC[C@]1(O[C@@H]1O[C@H](CO)[C@@H](O)[C@H](O[C@@H]2O[C@H](CO)[C@@H](O)[C@H](O)[C@H]2O)[C@H]1O[C@@H]1O[C@H](CO)[C@@H](O)[C@H](O)[C@H]1O)C3` [Reb O, Rebaudioside O], in test [1] (setting [5]), the Bitter is 3.1 and the Sweetness is listed as 7.2 SEV. Also, in test [2] (400 ppm), the “Measured Bitterness” value was 2.98, the “Measured Sweetness” value is recorded as 7.47 and the “Measured S/B” value is recorded as 2.51. In test [2] (600 ppm), the “Measured Bitterness” value turned out to be 3.23, the “Measured Sweetness” value is recorded as 7.669 and the “Measured S/B” value came to 2.37.
As for `C=C1C[C@@]23CC[C@H]4[C@@](C)(CCC[C@@]4(C)C(=O)O[C@@H]4O[C@H](CO)[C@@H](O)[C@H](O)[C@H]4O[C@@H]4O[C@H](CO)[C@@H](O)[C@H](O)[C@H]4O)[C@@H]2CC[C@]1(O[C@@H]1O[C@H](CO)[C@@H](O)[C@H](O[C@@H]2O[C@H](CO)[C@@H](O)[C@H](O)[C@H]2O)[C@H]1O[C@@H]1O[C@H](CO)[C@@H](O)[C@H](O)[C@H]1O)C3` [Reb D, Rebaudioside D], in test [1] (setting [3]), the “Sweetness Avg.” value was 7.1 SEV and the “Bitter Avg.” value is recorded as 3.6. In test [1] (setting [4]), the “Sweetness Avg.” value was 8.3 SEV and the “Bitter Avg.” value amounted to 4.2. For the same compound, in test [2] (400 ppm), the “Measured Bitterness” value came out at 3.51, the “Measured Sweetness” value turned out to be 7.08 and the “Measured S/B” value stood at 2.05. Further, in test [2] (600 ppm), the “Measured Bitterness” value came to 3.80, the “Measured Sweetness” value was 8.31 and the “Measured S/B” value came out at 2.23.
Take `C=C1C[C@@]23CC[C@H]4[C@@](C)(CCC[C@@]4(C)C(=O)O[C@@H]4O[C@H](CO)[C@@H](O)[C@H](O[C@@H]5O[C@H](CO)[C@@H](O)[C@H](O)[C@H]5O)[C@H]4O[C@@H]4O[C@@H](C)[C@H](O)[C@@H](O)[C@H]4O)[C@@H]2CC[C@]1(O[C@@H]1O[C@H](CO)[C@@H](O)[C@H](O[C@@H]2O[C@H](CO)[C@@H](O)[C@H](O)[C@H]2O)[C@H]1O[C@@H]1O[C@H](CO)[C@@H](O)[C@H](O)[C@H]1O)C3` [Reb N, Rebaudioside N]: in test [2] (400 ppm), the “Measured Bitterness” value came out at 3.03, the “Measured Sweetness” value came to 7.44 and the “Measured S/B” value was 2.45. In test [2] (600 ppm), the “Measured Bitterness” value was found to be 3.25, the “Measured Sweetness” value stood at 7.709 and the “Measured S/B” value was 2.37.
Consider `C=C1C[C@@]23CC[C@H]4[C@@](C)(CCC[C@@]4(C)C(=O)O[C@@H]4O[C@H](CO)[C@@H](O)[C@H](O)[C@H]4O[C@@H]4O[C@H](CO)[C@@H](O)[C@H](O)[C@H]4O)[C@@H]2CC[C@]1(O[C@@H]1O[C@H](CO)[C@@H](O)[C@H](O)[C@H]1O[C@@H]1O[C@H](CO)[C@@H](O)[C@H](O)[C@H]1O)C3` [Reb E, Rebaudioside E], for which, in test [2] (400 ppm), the “Measured Bitterness” value came out at 2.93, the “Measured Sweetness” value worked out at 4.53 and the “Measured S/B” value was 1.55. Also, in test [2] (600 ppm), the “Measured Bitterness” value is given as 2.98, the “Measured Sweetness” value worked out at 6.29 and the “Measured S/B” value is on record as 2.11.
On to `C=C1C[C@@]23CC[C@H]4[C@@](C)(CCC[C@@]4(C)C(=O)O[C@@H]4O[C@H](CO)[C@@H](O)[C@H](O)[C@H]4O)[C@@H]2CC[C@]1(O[C@@H]1O[C@H](CO)[C@@H](O)[C@H](O[C@@H]2O[C@H](CO)[C@@H](O)[C@H](O)[C@H]2O)[C@H]1O)C3` [Reb G, Rebaudioside G], for which, in test [2] (400 ppm), the “Measured Bitterness” value worked out at 2.53, the “Measured Sweetness” value is 2.17 and the “Measured S/B” value is given as 0.86. Moreover, in test [2] (600 ppm), the “Measured Bitterness” value is given as 2.30, the “Measured Sweetness” value turned out to be 1.98 and the “Measured S/B” value turned out to be 0.84.
